# From ChEMBL document CHEMBL1201862, “PubChem BioAssay data set” (2004)
# The source made the active and inactive calls.
# Key:
# [1] = cytotoxicity in HEK-293T cells, dose response, cytotoxicity control for TCR NF-kB inhibitor project, luminescence, T-cell screen hits (AID 489026); type: functional, cell-based;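 note: cells exposed to compound about 14 hours before the viability readout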
# [2] = cytotoxicity toward DRD oncogenic fibroblasts, dose response, cell-based, non-viral oncogenic, luminescence (AID 1934); type: functional; conditions: Homo sapiens
# [3] = Luminescence Cell-Based Dose Response HTS to Identify Inhibitors of 5'UTR Stem-Loop Driven Prion Protein mRNA Translation in H4 Neuroglioblastoma Cells. [Related pubchem assays: 1827 (Project Summary), 1813 (Primary HTS)]; type: functional
# BJ [4] = test: cytotoxicity toward BJ-TERT-LT-ST fibroblasts, dose response, cell-based, RAS-independent, luminescence (AID 1935); type: functional; conditions: Homo sapiens;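 note: BJ fibroblasts immortalized with TERT plus LT and ST oncogenes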
# BJ [5] = test: cytotoxicity toward BJ-TERT fibroblasts, dose response, cell-based, RAS-independent, luminescence (AID 1933); type: functional; conditions: Homo sapiens
# [6] = inhibitors of firefly luciferase expression or activity, dose response, H4 neuroglioma cells, luminescence (AID 1990); type: functional, cell-based
# BJ [7] = test: cells; type: functional, cell-based; conditions: Homo sapiens
# [8] = molecular target: T1, Alkaline phosphatase, tissue-nonspecific isozyme (Homo sapiens, UniProt P05186); test: human TNAP enzyme inhibitors, SAR follow-up, biochemical, luminescent, dose response (AID 1056)
# T1 sequence (P05186 whole entry): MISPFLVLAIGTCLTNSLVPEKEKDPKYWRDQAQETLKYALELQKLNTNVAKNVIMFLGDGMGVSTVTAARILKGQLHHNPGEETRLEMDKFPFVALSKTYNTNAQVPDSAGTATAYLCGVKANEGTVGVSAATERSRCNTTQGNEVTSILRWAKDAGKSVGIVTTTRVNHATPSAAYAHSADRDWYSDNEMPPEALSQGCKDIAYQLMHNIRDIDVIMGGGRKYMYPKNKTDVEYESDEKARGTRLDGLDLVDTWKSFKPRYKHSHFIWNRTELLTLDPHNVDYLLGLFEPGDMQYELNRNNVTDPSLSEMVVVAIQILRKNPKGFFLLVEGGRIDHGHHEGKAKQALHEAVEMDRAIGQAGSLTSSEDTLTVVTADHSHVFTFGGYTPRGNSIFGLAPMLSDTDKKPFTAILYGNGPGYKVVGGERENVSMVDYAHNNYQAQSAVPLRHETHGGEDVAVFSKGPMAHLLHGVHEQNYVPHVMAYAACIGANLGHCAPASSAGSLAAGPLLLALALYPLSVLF
# [9] = molecular target: Glyceraldehyde-3-phosphate dehydrogenase (Homo sapiens, UniProt P04406)
# Glyceraldehyde-3-phosphate dehydrogenase, sequence (P04406 whole entry): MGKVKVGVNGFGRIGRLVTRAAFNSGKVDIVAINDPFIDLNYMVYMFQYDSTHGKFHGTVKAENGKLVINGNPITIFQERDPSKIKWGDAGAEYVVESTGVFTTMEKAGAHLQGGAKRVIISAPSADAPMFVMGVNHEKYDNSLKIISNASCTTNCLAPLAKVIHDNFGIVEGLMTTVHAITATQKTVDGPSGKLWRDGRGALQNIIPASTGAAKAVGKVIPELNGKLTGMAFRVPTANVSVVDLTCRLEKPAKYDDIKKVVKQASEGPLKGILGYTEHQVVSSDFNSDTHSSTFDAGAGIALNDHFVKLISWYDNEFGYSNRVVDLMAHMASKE
# [10] = molecular target: T2, Short transient receptor potential channel 4 (Mus musculus, UniProt Q9QUQ5); test: mouse TRPC4 channel inhibitors, dose response, cell-based, HEK293 TRPC4/mu-opioid, Fluo-4 calcium (AID 434942); type: functional;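 note: potency of inhibitors blocking the TRPC4 calcium response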
# T2 sequence (Q9QUQ5 whole entry): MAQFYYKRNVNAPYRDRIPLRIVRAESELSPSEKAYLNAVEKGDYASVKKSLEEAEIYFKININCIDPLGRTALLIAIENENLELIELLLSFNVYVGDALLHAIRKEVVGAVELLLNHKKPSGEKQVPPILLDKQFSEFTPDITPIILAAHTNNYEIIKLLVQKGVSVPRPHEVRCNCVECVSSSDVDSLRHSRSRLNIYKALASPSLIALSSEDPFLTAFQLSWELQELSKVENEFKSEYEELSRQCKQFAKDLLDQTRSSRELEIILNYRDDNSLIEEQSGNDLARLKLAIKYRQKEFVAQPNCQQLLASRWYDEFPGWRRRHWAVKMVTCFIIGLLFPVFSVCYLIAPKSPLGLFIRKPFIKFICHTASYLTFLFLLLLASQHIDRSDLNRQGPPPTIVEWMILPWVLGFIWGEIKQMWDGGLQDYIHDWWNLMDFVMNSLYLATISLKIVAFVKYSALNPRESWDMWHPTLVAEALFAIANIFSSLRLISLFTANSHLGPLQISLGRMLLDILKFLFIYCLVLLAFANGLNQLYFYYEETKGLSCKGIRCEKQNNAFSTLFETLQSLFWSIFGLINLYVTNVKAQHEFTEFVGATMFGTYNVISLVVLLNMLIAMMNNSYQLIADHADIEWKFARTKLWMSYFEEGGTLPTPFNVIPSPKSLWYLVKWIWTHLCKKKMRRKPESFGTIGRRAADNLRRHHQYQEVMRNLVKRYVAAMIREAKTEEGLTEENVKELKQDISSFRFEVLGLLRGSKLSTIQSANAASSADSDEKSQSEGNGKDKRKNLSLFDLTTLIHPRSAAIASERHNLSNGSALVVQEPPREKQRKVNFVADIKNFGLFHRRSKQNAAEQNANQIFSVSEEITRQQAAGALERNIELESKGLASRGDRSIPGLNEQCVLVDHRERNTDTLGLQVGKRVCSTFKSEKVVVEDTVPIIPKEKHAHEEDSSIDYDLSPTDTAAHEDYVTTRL
# Escherichia coli [11] = test: microbe, parasite or virus in culture
# [12] = molecular target: Glucose-6-phosphate 1-dehydrogenase (Homo sapiens, UniProt P11413); test: human G6PD enzyme inhibitors, dose response, selectivity assay for P. falciparum G6PD inhibitor project, biochemical, fluorescence (AID 504792); type: functional
# Glucose-6-phosphate 1-dehydrogenase, sequence (P11413 whole entry, the tested form may be a part): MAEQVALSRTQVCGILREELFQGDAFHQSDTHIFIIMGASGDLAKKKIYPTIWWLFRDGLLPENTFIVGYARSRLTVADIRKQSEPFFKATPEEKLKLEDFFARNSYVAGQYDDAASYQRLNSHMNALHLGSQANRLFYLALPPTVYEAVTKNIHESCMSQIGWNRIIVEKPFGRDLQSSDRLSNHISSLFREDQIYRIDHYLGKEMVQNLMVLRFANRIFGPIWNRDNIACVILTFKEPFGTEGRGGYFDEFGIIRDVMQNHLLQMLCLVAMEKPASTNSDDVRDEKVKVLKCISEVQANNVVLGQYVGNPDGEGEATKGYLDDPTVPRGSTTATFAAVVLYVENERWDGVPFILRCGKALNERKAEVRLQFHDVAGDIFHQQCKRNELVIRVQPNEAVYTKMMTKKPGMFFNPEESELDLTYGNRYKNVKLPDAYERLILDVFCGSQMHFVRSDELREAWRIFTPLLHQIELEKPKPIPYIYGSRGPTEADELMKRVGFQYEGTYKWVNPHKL
# [13] = inhibitors of clade B AD8 Env fusion, dose response, cell-based, cherry-pick (AID 652062); type: functional;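 note: luciferase signal from cell-cell fusion driven by HIV-1 clade B AD8 Env; potency is for inhibitors of fusion seen as a drop in luminescence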
# HEK293 [14] = test: cells; type: functional, cell-based; conditions: Homo sapiens
# HEK293 [15] = test: NOD2 signaling inhibitors in MDP-stimulated cells, cell-based, uHTS, luminescence (AID 2001); type: functional; conditions: Homo sapiens
# HEK293 [16] = test: NOD1 signaling inhibitors, primary screen, cell-based, luminescence, uHTS (AID 1578); type: functional; conditions: Homo sapiens
# HEK293 [17] = test: cells; type: functional, cell-based; conditions: Homo sapiens; remark: listed apart in the source
# Escherichia coli [18] = test: microbe, parasite or virus in culture; remark: listed apart in the source
# [19] = molecular target: T3, Rac GTPase-activating protein 1 (Homo sapiens, UniProt Q9H0H5); test: MgcRacGAP GTPase-activating activity inhibitors, confirmation, biochemical, ADP Hunter fluorescence, primary and confirmatory (AID 624330); type: functional
# T3 sequence (Q9H0H5 whole entry): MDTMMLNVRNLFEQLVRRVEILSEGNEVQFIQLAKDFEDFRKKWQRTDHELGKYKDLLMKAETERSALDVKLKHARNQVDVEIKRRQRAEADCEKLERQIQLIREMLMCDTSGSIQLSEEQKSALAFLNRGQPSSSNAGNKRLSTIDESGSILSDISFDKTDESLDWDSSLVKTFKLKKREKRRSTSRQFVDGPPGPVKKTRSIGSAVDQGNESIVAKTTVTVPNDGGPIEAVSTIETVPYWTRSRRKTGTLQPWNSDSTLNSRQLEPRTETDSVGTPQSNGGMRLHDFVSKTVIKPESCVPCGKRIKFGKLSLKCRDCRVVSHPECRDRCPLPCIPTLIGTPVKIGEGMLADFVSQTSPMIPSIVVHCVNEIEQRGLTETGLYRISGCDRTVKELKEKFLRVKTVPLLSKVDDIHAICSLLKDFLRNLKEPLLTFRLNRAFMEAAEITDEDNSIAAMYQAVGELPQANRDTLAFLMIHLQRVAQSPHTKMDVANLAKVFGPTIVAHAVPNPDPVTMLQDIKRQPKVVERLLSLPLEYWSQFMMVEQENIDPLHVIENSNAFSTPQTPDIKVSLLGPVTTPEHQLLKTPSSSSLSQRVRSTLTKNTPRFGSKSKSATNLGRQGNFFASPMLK
# [20] = molecular target: T4, Corticotropin-releasing factor receptor 2/Corticotropin-releasing factor-binding protein (Homo sapiens, UniProt P24387+Q13324); test: activators of CRF receptor 2 with binding protein – uHTS hits, confirmation (AID 602473); type: functional; conditions: read-out: EC50_Mean
# T4 sequence (Q13324 whole entry): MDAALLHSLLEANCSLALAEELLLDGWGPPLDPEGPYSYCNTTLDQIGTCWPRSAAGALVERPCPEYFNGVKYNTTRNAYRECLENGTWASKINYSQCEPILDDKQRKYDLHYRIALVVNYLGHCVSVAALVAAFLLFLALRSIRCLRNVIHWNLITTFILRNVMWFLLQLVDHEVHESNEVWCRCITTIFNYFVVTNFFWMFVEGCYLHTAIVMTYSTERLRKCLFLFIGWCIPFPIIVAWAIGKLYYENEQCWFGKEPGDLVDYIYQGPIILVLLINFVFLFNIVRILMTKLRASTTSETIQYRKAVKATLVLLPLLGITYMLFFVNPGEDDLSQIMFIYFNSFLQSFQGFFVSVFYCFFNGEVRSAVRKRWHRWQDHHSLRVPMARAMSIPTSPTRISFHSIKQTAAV
# T4 sequence (P24387 whole entry): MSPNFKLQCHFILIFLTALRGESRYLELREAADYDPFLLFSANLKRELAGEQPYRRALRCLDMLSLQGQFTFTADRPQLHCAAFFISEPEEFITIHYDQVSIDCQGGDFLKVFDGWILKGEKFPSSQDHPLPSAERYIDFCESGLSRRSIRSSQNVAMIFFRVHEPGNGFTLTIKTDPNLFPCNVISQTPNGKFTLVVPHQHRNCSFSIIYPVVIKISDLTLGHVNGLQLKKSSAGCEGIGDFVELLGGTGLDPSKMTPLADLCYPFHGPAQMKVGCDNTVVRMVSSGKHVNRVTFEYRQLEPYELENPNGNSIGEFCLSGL
# [21] = molecular target: T5, DNA repair protein RAD52 homolog (Homo sapiens, UniProt P43351); type: functional, biochemical
# T5 sequence (P43351 whole entry): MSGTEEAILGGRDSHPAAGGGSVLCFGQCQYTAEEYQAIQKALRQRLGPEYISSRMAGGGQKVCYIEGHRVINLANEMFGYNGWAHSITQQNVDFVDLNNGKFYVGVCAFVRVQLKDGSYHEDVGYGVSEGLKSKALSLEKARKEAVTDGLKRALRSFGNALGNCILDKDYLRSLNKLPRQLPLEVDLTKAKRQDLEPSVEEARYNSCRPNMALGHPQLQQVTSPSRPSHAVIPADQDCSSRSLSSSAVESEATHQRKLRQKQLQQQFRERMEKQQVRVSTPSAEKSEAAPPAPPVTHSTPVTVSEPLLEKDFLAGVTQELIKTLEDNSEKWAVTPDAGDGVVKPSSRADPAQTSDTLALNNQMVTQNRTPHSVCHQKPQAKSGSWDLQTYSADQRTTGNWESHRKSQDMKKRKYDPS
# [22] = molecular target: T4, Corticotropin-releasing factor receptor 2/Corticotropin-releasing factor-binding protein; test: Dose Response confirmation of uHTS hits for small molecule antagonists of the CRF-binding protein and CRF-R2 receptor complex.; type: functional; conditions: read-out: IC50_Mean
smiles,measurement,setting,value
Cc1ccc2[nH]c(-c3cccc(F)c3)cc(=O)c2c1,IC50,[1],> 80 µM (inactive)
COc1ccc(C2=NOC(C(=O)NCc3ccc(F)cc3)C2)cc1OC (centres undefined),IC50,[1],> 80 µM (inactive)
same,EC50,[2],18.3 µM (active)
same,EC50,[3],> 120 µM (not active)
same,EC50,BJ [4],5.72 µM (inconclusive)
same,EC50,BJ [5],1.54 µM (inconclusive)
same,EC50,[6],11.2 µM (active)
same,EC50,BJ [7],26 µM (active)
O=C1C2CC=CCC2C(=O)N1c1nc[nH]n1 (centres undefined),IC50,[8],> 100 µM (inactive)
same,IC50,[9],> 100 µM (not active)
O=C(CSc1nc2ccccc2c(=O)n1CCCO)N1CCc2ccccc21,EC50,[10],0.596 µM (active)
Clc1ccc(-c2csc(-c3cccnc3)n2)s1,AC50,Escherichia coli [11],276 µM (active)
c1ccc(OCc2nnc3n2N=C(c2ccccc2)CS3)cc1,IC50,[12],> 80 µM (inactive)
Cc1ccccc1Cn1c(=N)n(CC(O)c2ccco2)c2ccccc21 (centres undefined),EC50,[10],0.668 µM (active)
O=C(Nc1nc(-c2ccc3c(c2)OCO3)cs1)c1ccncc1,AC50,[13],4.67 µM (active)
same,IC50,HEK293 [14],11 µM (active)
same,IC50,HEK293 [15],4.79 µM (active)
same,EC50,HEK293 [16],3.32 µM (active)
same,IC50,HEK293 [17],4.5 µM (active)
CCCCc1nc2ccccc2c(N)c1CCC.O=C(O)c1cc([N+](=O)[O-])ccc1Cl,EC50,[10],1.19 µM (active)
CCOc1ccccc1NS(=O)(=O)c1c(C)noc1C,IC50,[12],> 80 µM (inactive)
Cn1c(C(=O)OCC(=O)NCC2CCCO2)cc2sccc21 (centres undefined),AC50,Escherichia coli [11],149 µM (active)
same,AC50,Escherichia coli [18],25.8 µM (active)
C=CCOc1cccc(C(=O)N2CCCC(CCC(=O)NCc3ccccc3F)C2)c1 (centres undefined),AC50,Escherichia coli [11],41.3 µM (active)
c1cc2c(cc1NC1CCCCCC1)OCO2,IC50,[19],48.4 µM (active)
same,IC50,[12],> 80 µM (inactive)
NCC[C@H](O)C(=O)N[C@@H]1C[C@H](N)[C@@H](O[C@H]2O[C@H](CN)[C@@H](O)[C@H](O)[C@H]2O)[C@H](O)[C@H]1O[C@H]1O[C@H](CO)[C@@H](O)[C@H](N)[C@H]1O,EC50,[20],> 53 µM (inactive)
same,IC50,[19],113 µM (active)
same,AC50,Escherichia coli [11],4.69 µM (active)
same,AC50,[21],5.91 µM (active)
same,IC50,[22],> 47.1 µM (inactive)
same,AC50,Escherichia coli [18],14.9 µM (active)
C/C(Cn1nnc([N+](=O)[O-])n1)=N\NC(=O)c1ccc(O)cc1O,IC50,[12],> 80 µM (inactive)
same,AC50,Escherichia coli [18],84.9 µM (active)
